Data: ChEMBL document CHEMBL1123524, “Aminoglycoside antibiotics. 6. Chemical reactions of aminoglycosides with disodium carbenicillin” (1986)
Converted amounts (≈) assume the structure as drawn.

Columns and labels:
Type in all cases: functional
Escherichia coli [1] = experiment: Antibacterial activity expressed as MIC value was determined on Escherichia coli A-9632 organism
Escherichia coli [2] = experiment: Antibacterial activity expressed as MIC value was determined on Escherichia coli A-22356 organism
Escherichia coli [3] = experiment: Antibacterial activity expressed as MIC value was determined on Escherichia coli A-20665 organism
Escherichia coli [4] = experiment: Antibacterial activity expressed as MIC value was determined on Escherichia coli A-20683 organism
Escherichia coli [5] = experiment: Antibacterial activity expressed as MIC value was determined on Escherichia coli A-20697 organism
Escherichia coli [6] = experiment: Antibacterial activity expressed as MIC value was determined on Escherichia coli A-20732 organism
Escherichia coli [7] = experiment: Antibacterial activity expressed as MIC value was determined on Escherichia coli A-20895 organism
Escherichia coli [8] = experiment: Antibacterial activity expressed as MIC value was determined on Escherichia coli A-21218 organism
Escherichia coli [9] = experiment: Antibacterial activity expressed as MIC value was determined on Escherichia coli A-22045 organism
Enterobacter cloacae [10] = experiment: Antibacterial activity expressed as MIC value was determined on Enterobacter cloacae A-21006 organism
Enterobacter cloacae [11] = experiment: Antibacterial activity expressed as MIC value was determined on Enterobacter cloacae A-21136 organism
Enterobacter cloacae [12] = experiment: Antibacterial activity expressed as MIC value was determined on Enterobacter cloacae A-9656 organism
Klebsiella pneumoniae = experiment: Antibacterial activity expressed as MIC value was determined on Klebsiella pneumonia A-20468 organism
Providencia rettgeri [13] = experiment: ntibacterial activity expressed as MIC value was determined on Proteus rettgeri A-21207 organism
Providencia stuartii [14] = experiment: Antibacterial activity expressed as MIC value was determined on Proteus stuartii A-21210 organism
Providencia rettgeri [15] = experiment: Antibacterial activity expressed as MIC value was determined on Proteus rettgeri A-9637 organism
Proteus mirabilis = experiment: Antibacterial activity expressed as MIC value was determined on Proteus mirabilis A-9900 organism
Pseudomonas aeruginosa [16] = experiment: Antibacterial activity expressed as MIC value was determined on Pseudomonas aeruginosa A-20601 organism
Pseudomonas aeruginosa [17] = experiment: Antibacterial activity expressed as MIC value was determined on Pseudomonas aeruginosa A-20653 organism
Pseudomonas aeruginosa [18] = experiment: Antibacterial activity expressed as MIC value was determined on Pseudomonas aeruginosa A-20717 organism
Pseudomonas aeruginosa [19] = experiment: Antibacterial activity expressed as MIC value was determined on Pseudomonas aeruginosa A-20897 organism
Pseudomonas aeruginosa [20] = experiment: Antibacterial activity expressed as MIC value was determined on Pseudomonas aeruginosa A-21294 organism
Pseudomonas aeruginosa [21] = experiment: Antibacterial activity expressed as MIC value was determined on Pseudomonas aeruginosa A-21509 organism
Pseudomonas aeruginosa [22] = experiment: Antibacterial activity expressed as MIC value was determined on Pseudomonas aeruginosa A-22233 organism
Pseudomonas aeruginosa [23] = experiment: Antibacterial activity expressed as MIC value was determined on Pseudomonas aeruginosa A-9834A organism
Serratia marcescens = experiment: Antibacterial activity expressed as MIC value was determined on Serratia marcescens A-20019 organism
Staphylococcus aureus [24] = experiment: Antibacterial activity expressed as MIC value was determined on Staphylococcus aureus A-20240 organism
Staphylococcus aureus [25] = experiment: Antibacterial activity expressed as MIC value was determined on Staphylococcus aureus A-21978 organism
Staphylococcus aureus [26] = experiment: Antibacterial activity expressed as MIC value was determined on Staphylococcus aureus A-22058 organism
Staphylococcus aureus [27] = experiment: Antibacterial activity expressed as MIC value was determined on Staphylococcus aureus A-22210 organism
Staphylococcus aureus [28] = experiment: Antibacterial activity expressed as MIC value was determined on Staphylococcus aureus A-22231 organism
Staphylococcus aureus [29] = experiment: Antibacterial activity expressed as MIC value was determined on Staphylococcus aureus A-9537 organism
Providencia stuartii [30] = experiment: Antibacterial activity expressed as MIC value was determined on Proteus stuartii A-20894 organism
Pseudomonas aeruginosa [31] = experiment: Antibacterial activity expressed as MIC value was determined on Pseudomonas aeruginosa A-20741 organism
Enterobacter cloacae [32] = experiment: Antibacterial activity expressed as MIC value was determined on Enterobacter cloacae A-20364 organism
Pseudomonas aeruginosa [33] = experiment: Antibacterial activity expressed as MIC value was determined on Pseudomonas aeruginosa A-21508 organism

Compound	MIC (Escherichia coli [1]) [µg/mL]	MIC (Escherichia coli [2]) [µg/mL]	MIC (Escherichia coli [3]) [µg/mL]	MIC (Escherichia coli [4]) [µg/mL]	MIC (Escherichia coli [5]) [µg/mL]	MIC (Escherichia coli [6]) [µg/mL]	MIC (Escherichia coli [7]) [µg/mL]	MIC (Escherichia coli [8]) [µg/mL]	MIC (Escherichia coli [9]) [µg/mL]	MIC (Enterobacter cloacae [10]) [µg/mL]	MIC (Enterobacter cloacae [11]) [µg/mL]	MIC (Enterobacter cloacae [12]) [µg/mL]	MIC (Klebsiella pneumoniae) [µg/mL]	MIC (Providencia rettgeri [13]) [µg/mL]	MIC (Providencia stuartii [14]) [µg/mL]	MIC (Providencia rettgeri [15]) [µg/mL]	MIC (Proteus mirabilis) [µg/mL]	MIC (Pseudomonas aeruginosa [16]) [µg/mL]	MIC (Pseudomonas aeruginosa [17]) [µg/mL]	MIC (Pseudomonas aeruginosa [18]) [µg/mL]	also measured
NC[C@H]1O[C@H](O[C@H]2[C@H](O)[C@@H](O[C@H]3O[C@H](CO)[C@@H](O)[C@H](N)[C@H]3O)[C@H](N)C[C@@H]2N)[C@H](O)[C@@H](O)[C@@H]1O [KANAMYCIN]	2 (≈ 4.13 µM)	2 (≈ 4.13 µM)	> 125	> 125	2 (≈ 4.13 µM)	63 (≈ 130 µM)	2 (≈ 4.13 µM)	32 (≈ 66 µM)	4 (≈ 8.26 µM)	> 125	32 (≈ 66 µM)	1 (≈ 2.06 µM)	0.5 (≈ 1.03 µM)	2 (≈ 4.13 µM)	0.5 (≈ 1.03 µM)	0.5 (≈ 1.03 µM)	2 (≈ 4.13 µM)	32 (≈ 66 µM)	> 125	32 (≈ 66 µM)	MIC (Pseudomonas aeruginosa [19]): > 125 µg/mL; MIC (Pseudomonas aeruginosa [20]): 63 µg/mL (≈ 130 µM); MIC (Pseudomonas aeruginosa [21]): > 125 µg/mL; MIC (Pseudomonas aeruginosa [22]): > 125 µg/mL; MIC (Pseudomonas aeruginosa [23]): 63 µg/mL (≈ 130 µM); MIC (Serratia marcescens): 1 µg/mL (≈ 2.06 µM); MIC (Staphylococcus aureus [24]): > 125 µg/mL; MIC (Staphylococcus aureus [25]): > 125 µg/mL; MIC (Staphylococcus aureus [26]): 125 µg/mL (≈ 258 µM); MIC (Staphylococcus aureus [27]): > 125 µg/mL; MIC (Staphylococcus aureus [28]): 8 µg/mL (≈ 16.5 µM); MIC (Staphylococcus aureus [29]): 0.05 µg/mL (≈ 0.103 µM); MIC (Providencia stuartii [30]): 4 µg/mL (≈ 8.26 µM); MIC (Pseudomonas aeruginosa [31]): > 125 µg/mL; MIC (Enterobacter cloacae [32]): > 125 µg/mL; MIC (Pseudomonas aeruginosa [33]): > 125 µg/mL
NC[C@H]1O[C@H](O[C@H]2[C@H](O)[C@@H](O[C@H]3O[C@H](CO)[C@@H](O)[C@H](N)[C@H]3O)[C@H](N)C[C@@H]2N)[C@H](N)C[C@@H]1O [TOBRAMYCIN]	0.25 (≈ 0.535 µM)	0.25 (≈ 0.535 µM)	1 (≈ 2.14 µM)	16 (≈ 34.2 µM)	0.13 (≈ 0.278 µM)	8 (≈ 17.1 µM)	0.5 (≈ 1.07 µM)	8 (≈ 17.1 µM)	4 (≈ 8.56 µM)	1 (≈ 2.14 µM)	16 (≈ 34.2 µM)	0.25 (≈ 0.535 µM)	0.06 (≈ 0.128 µM)	32 (≈ 68.4 µM)	2 (≈ 4.28 µM)	0.13 (≈ 0.278 µM)	0.5 (≈ 1.07 µM)	0.13 (≈ 0.278 µM)	0.13 (≈ 0.278 µM)	0.13 (≈ 0.278 µM)	MIC (Pseudomonas aeruginosa [19]): 125 µg/mL (≈ 267 µM); MIC (Pseudomonas aeruginosa [20]): 16 µg/mL (≈ 34.2 µM); MIC (Pseudomonas aeruginosa [21]): 4 µg/mL (≈ 8.56 µM); MIC (Pseudomonas aeruginosa [22]): 125 µg/mL (≈ 267 µM); MIC (Pseudomonas aeruginosa [23]): 0.13 µg/mL (≈ 0.278 µM); MIC (Serratia marcescens): 2 µg/mL (≈ 4.28 µM); MIC (Staphylococcus aureus [24]): 0.13 µg/mL (≈ 0.278 µM); MIC (Staphylococcus aureus [25]): 32 µg/mL (≈ 68.4 µM); MIC (Staphylococcus aureus [26]): 32 µg/mL (≈ 68.4 µM); MIC (Staphylococcus aureus [27]): 8 µg/mL (≈ 17.1 µM); MIC (Staphylococcus aureus [28]): 16 µg/mL (≈ 34.2 µM); MIC (Staphylococcus aureus [29]): 0.03 µg/mL (≈ 0.0642 µM); MIC (Providencia stuartii [30]): 16 µg/mL (≈ 34.2 µM); MIC (Pseudomonas aeruginosa [31]): > 125 µg/mL; MIC (Enterobacter cloacae [32]): 0.5 µg/mL (≈ 1.07 µM); MIC (Pseudomonas aeruginosa [33]): 0.06 µg/mL (≈ 0.128 µM)
